# Measured values: the NIST ThermoML archive (doi:10.1016/j.jct.2012.05.002)
# ± gives the expanded uncertainty stated by the source.
# Assay: Boiling temperature at pressure P
# Conditions: 101.3 kPa; Liquid; Closed cell (Static) method
row,SMILES,Boiling temperature at pressure P
1,COC(=O)OC [dimethyl carbonate],64.69 ± 0.11 °C
2,CO [methanol],90.26 ± 0.11 °C
